Measured values published in paper PMC7366379 (Journal of the American Chemical Society, 2020).
“And” between values parts separate entries of the source, which are not always exact repeats. Identical values can stand only once. Like-named read-outs stand apart in the source and are kept apart here. Side chains are listed from the residue outwards. Ends that are not written are not given here. Peptide text beside a SMILES is read from it. * marks the point of attachment. Biotin = O=C1N[C@H]2[C@H](CS[C@H]2CCCCC(=O)*)N1

How the values were obtained:
OmpF [1] = target: T1, OmpF (Escherichia coli, UniProt P02931)
T1 sequence (P02931 23-362): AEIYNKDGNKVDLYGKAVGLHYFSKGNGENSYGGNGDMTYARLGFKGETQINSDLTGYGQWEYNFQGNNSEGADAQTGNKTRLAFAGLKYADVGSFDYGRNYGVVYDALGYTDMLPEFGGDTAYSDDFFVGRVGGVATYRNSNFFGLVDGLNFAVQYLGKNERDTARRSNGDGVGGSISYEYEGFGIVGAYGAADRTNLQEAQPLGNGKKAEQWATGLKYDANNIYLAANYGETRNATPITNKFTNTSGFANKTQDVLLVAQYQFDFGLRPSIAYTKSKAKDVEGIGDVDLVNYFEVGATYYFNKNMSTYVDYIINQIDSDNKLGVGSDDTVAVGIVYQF

[2] = Solubility of IUTD constructs; format: physicochemical
OmpF [3] = target: T1, OmpF; format: binding; set-up: made in house; host or cells: E. coli BZB1107 (ompF-, ompC-), plasmid pNGH72; settings: for k1 / k2 / k3 / k–1 / k–2 / k–3: extrapolated to 0 mV; for k1: DPhPC bilayer, 20 mM potassium phosphate pH 6.4, 0.1 M KCl, 20.5 °C, at least three independent experiments; for k2 / k3 / k–1 / k–2 / k–3: pH 6.4, 0.1 M KCl
[4] = target: OmpF porin trimer (outer-membrane protein F) (Escherichia coli) (UniProt P02931); test: single-channel electrical recording in planar lipid bilayer; single OmpF trimer in a DPhPC bilayer; binder added to the extracellular side; -100 mV (as stated for Figures 2, 3 and 5); 20 mM potassium phosphate pH 6.4, 0.1 M KCl, 20.5 °C
[5] = target: OmpF porin trimer (outer-membrane protein F) (Escherichia coli) (UniProt P02931); test: single-channel electrical recording in planar lipid bilayer
[6] = target: OmpF porin trimer (outer-membrane protein F) (Escherichia coli) (UniProt P02931); test: as above; remark: listed apart in the source
OmpF (Escherichia coli) = OmpF (Escherichia coli) (UniProt P02931); test: ITC; settings: cited from earlier work
[7] = target: AEDANS-labelled OBS1-fusion protein (colicin E9 OmpF-binding site 1 fused to a carrier) (UniProt P09883); test: stopped-flow FRET (OmpF tryptophans to AEDANS); settings: pH 6.5, 4 °C, no added salt stated (20 mM potassium phosphate only)
Sequence of AEDANS-labelled OBS1-fusion protein (colicin E9 OmpF-binding site 1 fused to a carrier) (P09883 whole entry, the tested form may be a part): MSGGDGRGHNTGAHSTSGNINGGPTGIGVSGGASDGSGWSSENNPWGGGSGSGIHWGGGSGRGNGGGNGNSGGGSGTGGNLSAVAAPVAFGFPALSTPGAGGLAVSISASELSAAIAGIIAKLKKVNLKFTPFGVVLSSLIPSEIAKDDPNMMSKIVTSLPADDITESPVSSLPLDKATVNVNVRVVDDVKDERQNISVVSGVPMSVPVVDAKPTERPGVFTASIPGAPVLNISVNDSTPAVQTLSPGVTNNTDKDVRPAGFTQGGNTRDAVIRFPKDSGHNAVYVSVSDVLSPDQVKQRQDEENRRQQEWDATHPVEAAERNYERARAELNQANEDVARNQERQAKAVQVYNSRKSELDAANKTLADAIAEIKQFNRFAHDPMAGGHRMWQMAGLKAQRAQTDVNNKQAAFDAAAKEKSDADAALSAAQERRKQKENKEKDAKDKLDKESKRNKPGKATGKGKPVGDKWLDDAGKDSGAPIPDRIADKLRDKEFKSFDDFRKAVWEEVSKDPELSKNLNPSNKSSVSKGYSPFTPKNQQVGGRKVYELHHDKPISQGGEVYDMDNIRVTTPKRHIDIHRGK

[8] = target: T2, OmpF porin trimer (outer-membrane protein F) (Escherichia coli, UniProt P02931 23-362); test: single-channel electrical recording in planar lipid bilayer; single OmpF trimer in a DPhPC bilayer; mSA-capped peptide added to the periplasmic side; +100 mV (where stated); 20 mM potassium phosphate pH 6.4, 0.1 M KCl, 20.5 °C; settings: both partners purified
T2 sequence (looked up): T1 sequence (P02931 23-362)

OmpF porin trimer [9] = target: T3, OmpF porin trimer (E. coli, UniProt P02931 23-362); test: single-channel electrical recording in planar lipid bilayers; single OmpF trimer in a DPhPC bilayer; peptide added to the extracellular side; phosphate buffer pH 6.4, 100 mM KCl; rate constants at 0 mV by extrapolation from negative applied potentials; Kd for the OmpF monomer (k-1 divided by one-third of k1); settings: both partners purified
T3 sequence (looked up): T1 sequence (P02931 23-362)

[10] = target: T2, OmpF porin trimer (outer-membrane …); test: single-channel electrical recording in planar lipid bilayer; single OmpF trimer in a DPhPC bilayer; free peptide added to the periplasmic (trans) side, positive potentials; constants of Table 1 extrapolated to 0 mV, Kd for a single OmpF subunit; 20 mM potassium phosphate pH 6.4, 0.1 M KCl, 20.5 °C; settings: both partners purified
[11] = target: T2, OmpF porin trimer (outer-membrane …); test: single-channel electrical recording in planar lipid bilayer; single OmpF trimer in a DPhPC bilayer; free peptide added to the extracellular (cis) side, negative potentials; constants of Table 1 extrapolated to 0 mV, Kd for a single OmpF subunit; 20 mM potassium phosphate pH 6.4, 0.1 M KCl, 20.5 °C; settings: both partners purified
OmpF porin trimer [12] = target: T3, OmpF porin trimer; test: single-channel electrical recording in planar lipid bilayers; current-voltage plots (-100 to +100 mV) of individual OmpF pores before and after addition of the binder to the extracellular side; settings: both partners purified
[13] = target: T2, OmpF porin trimer (outer-membrane …); test: single-channel electrical recording in planar lipid bilayer; single OmpF trimer in a DPhPC bilayer; binder added to the extracellular side; -100 mV (as stated for Figures 2, 3 and 5); 20 mM potassium phosphate pH 6.4, 0.1 M KCl, 20.5 °C; settings: both partners purified
OmpF porin trimer [14] = target: T3, OmpF porin trimer; test: single-channel electrical recording in planar lipid bilayers; OmpF trimer with two subunits already occluded by untagged IUTD (added to the extracellular side at -100 mV, rest removed by buffer exchange); 1 µM peptide then added to the periplasmic side at +50 mV; settings: both partners purified
[15] = target: T2, OmpF porin trimer (outer-membrane …); test: single-channel electrical recording in planar lipid bilayer; single OmpF trimer in a DPhPC bilayer; free peptide added to the extracellular (cis) side, negative potentials; constants of Table 1 extrapolated to 0 mV, Kd for a single OmpF subunit; 20 mM potassium phosphate pH 6.4, 0.1 M KCl, 20.5 °C; settings: both partners purified; remark: listed apart in the source
[16] = target: T2, OmpF porin trimer (outer-membrane …); test: single-channel electrical recording in planar lipid bilayer; single OmpF trimer in a DPhPC bilayer; free peptide added to the periplasmic (trans) side, positive potentials; constants of Table 1 extrapolated to 0 mV, Kd for a single OmpF subunit; 20 mM potassium phosphate pH 6.4, 0.1 M KCl, 20.5 °C; settings: both partners purified; remark: listed apart in the source
[17] = peptide from the periplasmic side, ± s.d., at least three experiments
[18] = peptide from the extracellular side, ± s.d., at least three experiments

With “ColE9_2–83-ENLYFQ [IUTD, intrinsically unstructured N-terminal translocation domain of ColE9, residues 2–83, released by TEV cleavage]” the “k12′ (rebinding)” value (OmpF [1]) was “≈ 10^3 s^–1”, the “Association with a first subunit: k01” value (OmpF [1]; SD) was 6.3 ± 1.9 104 M-1s-1 and 10 ± 4.1 104 M-1s-1 and the “Initial binding of the OBS1 sequence to a second subunit: k12” value (OmpF [1]; SD) was 58 ± 13 s⁻¹ and 38 ± 17 s⁻¹. For the same molecule, the “Rebinding of the OBS1 sequence to a second subunit: k12’” value (OmpF [1]; SD) was 2200 ± 270 s⁻¹ and 1400 ± 340 s⁻¹, the “Unbinding of the OBS1 sequence from the second subunit: k21” value (OmpF [1]; SD) was 2.6 ± 1.1 s⁻¹ and 3.4 ± 0.7 s⁻¹ and the “k01, association with the first OmpF subunit” value (OmpF [1]; pH 6.4) was “≈ 10^4 M^–1 s^–1”. For the same molecule, the “k12, initial binding of OBS1 to the second OmpF subunit” value (OmpF [1]; pH 6.4) was “≈ 10 ^2 s^–1”, the “occlusion of OmpF subunits after addition to the extracellular side (in words)” value (OmpF [1]; pH 6.4) was “sequential occlusion of two OmpF subunits” and the solubility [2] was ≤ 5 µM.

For `C[C@H](NC(=O)CNC(=O)[C@@H](NC(=O)[C@H](CC(N)=O)NC(=O)[C@H](Cc1c[nH]cn1)NC(=O)CNC(=O)[C@H](CCCNC(=N)N)NC(=O)CNC(=O)[C@H](CC(=O)O)NC(=O)CNC(=O)CNC(=O)[C@@H](N)CO)[C@@H](C)O)C(=O)N[C@@H](Cc1c[nH]cn1)C(=O)N[C@@H](CO)C(=O)N[C@H](C(=O)N[C@@H](CO)C(=O)NCC(N)=O)[C@@H](C)O` [OBS1_2–18] (H-SGGDGRGHNTGAHSTSG-NH2), the k1 (OmpF [3]; peptide from the periplasmic side, ± s.d.) was 9.6 ± 0.60 10^6 M^–1 s^–1, the k2 (OmpF [3]; [17]) was 6.1 ± 0.42 10^6 M^–1 s^–1 and the k3 (OmpF [3]; [17]) was 3.2 ± 0.25 10^6 M^–1 s^–1. The “k–1” value (OmpF [3]; [17]) was 43 ± 1.5 s^–1, the “k–2” value (OmpF [3]; [17]) was 78 ± 3.9 s^–1 and the “k–3” value (OmpF [3]; [17]) was 111 ± 6.6 s^–1.

“IUTD-fusion (ColE9_(1–83)-TEV-E9 DNase·Im9His6) (from UniProt P09883 1-83; P13479 1-86) (complex)” showed an effective molarity (EM) [4] of 0.9 mM, a koff (failed attempts at threading during the latency) [4] of 300 s⁻¹ and a k01 (association with the first subunit, at 0 mV) [5] of 9800 M⁻¹ s⁻¹. The other [5] was 181 s⁻¹, the k21' (unbinding of OBS1 from the second subunit, at 0 mV) [6] was 3.9 s⁻¹ and the other [6] was 5300 s⁻¹.

For `CC[C@H](C)[C@H](NC(C)=O)C(=O)N[C@@H](Cc1c[nH]cn1)C(=O)N[C@@H](Cc1c[nH]c2ccccc12)C(=O)NCC(=O)NCC(=O)NCC(=O)N[C@@H](CO)C(=O)NCC(=O)N[C@@H](CCCNC(=N)N)C(=O)NCC(N)=O` [OBS2_54–63] (Ac-IHWGGGSGRG-NH2), the “higher affinity from the periplasmic side than from the extracellular side” value (OmpF [3]; OBS2 peptide, PLB recording) was 200 times, the “slower dissociation when added to the periplasmic side than to the extracellular side” value (OmpF [3]; OBS2 peptide, PLB recording) was 4 orders of magnitude and the k1 (OmpF [3]; peptide from the extracellular side, ± s.d.) was 4.0 ± 0.60 10^6 M^–1 s^–1. The k3 (OmpF [3]; peptide from the extracellular side, fewer events (<100), error relatively large) was 0.97 ± 0.50 ^b 10^6 M^–1 s^–1, the k2 (OmpF [3]; [18]) was 2.2 ± 0.64 10^6 M^–1 s^–1 and the “k–1” value (OmpF [3]; [18]) was 1.3 ± 0.10 × 10^4 s^–1. The “k–2” value (OmpF [3]; [18]) was 2.5 ± 0.34 × 10^4 s^–1 and the “k–3” value (OmpF [3]; [18]) was 3.2 ± 0.47 × 10^4 s^–1.

In the case of “Colicin E9 OBS2 54-63 (from UniProt P09883)”, the Kd (OmpF (Escherichia coli)) is given as 24 µM.

For OmpF porin (outer membrane protein F), the “k1 (association rate constant)” value [7] was 9.80 ± 0.31 μM^–1 s^–1 and the “k–1 (dissociation rate constant)” value [7] was 3.22 ± 0.03 s^–1.

In the case of “Colicin E9 OBS1 2-18 (from UniProt P09883)”, the Kd (OmpF (Escherichia coli)) is given as 1.8 µM.

C([HPDP-Biotin])GGSSGGSSGGSSIHWGGGSGRG (also: bound to monovalent streptavidin) [mSA–OBS2 (Biotin-HPDP-Cys-Linker-OBS2_(54-63) bound to monovalent streptavidin)]: binds [8].

For SGGDGRGHNTGAHSTSGSSGGSSGGSSGGC([HPDP-Biotin]) (also: bound to monovalent streptavidin) [OBS1–mSA (OBS1_(2-18)-Linker-Cys-HPDP-Biotin bound to monovalent streptavidin)], the koff [8] was ~600 s⁻¹ and the kon [8] was ~5e+06 M⁻¹ s⁻¹.

Molecule SGGDGRGHNTGAHSTSG-NH2 has a Kd (OmpF porin trimer [9]) of 5400 µM.

Molecule H-SGGDGRGHNTGAHSTSG-NH2 has a Kd [10] of 13 µM and a Kd [11] of 5000 µM.

B1: untagged IUTD (ColE9_(2-83)-ENLYFQ) (domain or fragment)
chain: SGGDGRGHNTGAHSTSGNINGGPTGIGVSGGASDGSGWSSENNPWGGGSGSGIHWGGGSGRGNGGGNGNSGGGSGTGGNLSAENLYFQ
B1: binds (OmpF porin trimer [12]).

B2: free IUTD (ColE9_(2–83)-ENLYFQ) (domain or fragment)
chain: B1 chain
B2: binds [13].

SGGDGRGHNTGAHSTSGNINGGPTG-NH2 (peptide, UniProt P09883 2-26, looked up) [OBS1_(2-26) peptide (NH2-OBS1_(2-26)-CONH2)]: binds (OmpF porin trimer [14]).

Work on Ac-IHWGGGSGRG-NH2 [OBS2_(54-63) peptide (acetyl-OBS2_(54-63)-CONH2)] yielded a Kd [15] of 11000 µM and a Kd [16] of 60 µM.
